The subject of assay [1] is HSV-2 GFP+ (bHSV2-BAC38-S1). Nature of the assay: HSV-2 GFP+ infection of MRC5 cells, live-cell fluorescence imaging. Type of assay: cell-based. Conditions: for inhibition of fluorescent HSV-2 GFP+ infected cells: 24 hours post infection, 125 μM (FIG. 5A). The method, then:
FIG. 5A. Fluorescent images of MRC5 cells infected with HSV-2 GFP+(bHSV2-BAC38-S1). Images taken at 0 and 24 hours post infection using an Incucyte S3 Live-Cell Analysis System. Acyclovir at a matched concentration (125 μM) was used as a positive control. FIG. 5B. Live cell imaging analysis of triplicate wells infected with HSV-2 GFP+. Wells were treated with either Vehicle (0.1% DMSO), Acyclovir 125 μM, or JR002 125 μM. Images were collected at 2 hour intervals for 48 hours post infection. Relative fluorescent intensity (RFI) calculated as the percent increase in fluorescence intensity relative to time 0 post infection. Bars represent the standard error of the mean.
JR002 is the selenoglycoside homolog of TE3048, the thioglycoside for which data for inhibition of HSV-1 was shown above. In FIG. 5A., the lower right quadrant represents high level cell damage, fluorescent HSV-2 GFP+ infected cells 24 hours post infection (24HPI), vehicle only.

The test system of assay [2] is HSV-1. Type of assay: cell-based, Herpes simplex 1. Conditions: Vero cells, 4 hour treatment, low multiplicity HSV-1.
Assay [3] relates to SARS-CoV-2 spike protein. Conditions: previously demonstrated; blocks N-glycan processing at the oligomannose stage; cited from earlier work.
The subject of assay [4] is SARS-CoV-2 (USA_WA1/2020). The settings on record: highest non-toxic dose; Vero E6, 72 hr.
Source text: In this assay, viral infection and replication leads to a loss of host cell viability, which is indirectly measured by an endpoint assessment of host cell viability after 72 hr. The CPE reduction assay indirectly monitors the ability of compounds to inhibit viral replication and infection through various molecular mechanisms, including direct inhibition of viral entry or enzymatic processes as well as acting on host pathways that modulate viral replication. Compounds with antiviral activity protect the host cells from the CPE of the virus, increasing viability.
Protocol: Vero E6 cells were premixed with SARS-CoV-2 for 5-10 min, dispensed into assay ready plates (pre-dispensed with compounds and controls). Cells and virus were incubated with compounds for 72 hr, then viability was assayed by Vero E6 host cell ATP content. 60 nL/well of compounds in DMSO was spotted into 384-well assay plates (Greiner, black clear bottom, tissue culture treated plates, #781091) by acoustic dispensing. In addition, 60 nL of the positive control Calpain inhibitor IV (stock concentration 2 mg/mL). 5 μL/well of media was dispensed into assay plates (MEM, 1% Pen/Strep/GlutaMax, 1% HEPES, 2% HI FBS). […] Luminescence signal was read on Perkin Elmer Envision or BMG CLARIOstar plate reader.

The structures appear in SMILES notation. “Also recorded” adds a separate entry of the source.

As to `Nc1nc2c(ncn2COCCO)c(=O)[nH]1` [Acyclovir, reference compound], the “inhibition of fluorescent HSV-2 GFP+ infected cells” value in assay [1] is “almost complete inhibition”.

For `CC(=O)NC1C(OC(C)=O)[C@H](OC(C)=O)C(COC(C)=O)O[C@H]1[Se]C/C=C(\C)CCC=C(C)C` (stereo partly drawn) [JR002, Geranyl 2-acetamido-2-deoxy-3,4,6-tri-O-acetyl-1-seleno-3-D-glucopyranoside], the “inhibition of HSV-2 replication / infectivity” value in assay [1] (125 μM, imaging for 48 hours post infection) is “potent inhibition of infectivity; also recorded: significantly inhibits”. Besides, the “inhibition of fluorescent HSV-2 GFP+ infected cells” value in assay [1] is reported as “almost complete inhibition”.

In the case of `CC(=O)N[C@@H]1[C@@H](O)[C@H](O)[C@@H](CO)O[C@H]1SC/C=C(\C)CCC=C(C)C` [TE3054, GlcNAc-ß-S-geranyl], the “inhibition of HSV-1 infectivity / plaque formation” value in assay [2] is reported as “inhibitory”.

Take `O=C1N[C@@H]2[C@@H](O)[C@@H](O)[C@H](O)[C@@H](CO)N2C1=O` [kifunensine]: the “inhibition of N-glycan maturation and infectivity” value in assay [3] is “Inhibition of N-glycan maturation and infectivity”.

`CC(=O)N[C@@H]1[C@@H](OC(C)=O)[C@H](OC(C)=O)[C@@H](COC(C)=O)O[C@H]1SC/C=C(\C)CCC=C(C)C` [TE3048, N,O-tetra-acetyl-GlcNAc-ß-S-geranyl]: the “inhibition of SARS-CoV-2” value in assay [4] is 60-70%.
